Test system: Fusarium culmorum
Assay: Liquid growth inhibition assay in half strength potato dextrose broth
Type: cell-based
Conditions: assayed as described in Example 2
Procedure: Yeast cells transformed with either pTG3828, pMFprepro/Rs AFP2 or PMFpre/RsAFP2 were grown in selective SD medium until a saturated culture was obtained. To assess the antifungal activity of proteins secreted by the yeast cells, the supernatant of the yeast cultures was filtered (sterile 0.22 μm filter) and serially diluted in sterile water. Diluted samples (20 μl) were incubated in microtiter plate wells with 80 μl of half strength potato dextrose broth (Difco) containing spores 10^4 spores/ml) of Fusarium culmorum.
Growth of the fungi was monitored by microspectrophotometry as described by Broekaert et al (1990, FEMS Microbiol Lett, 69:55-60). Homogenates of yeast cells were prepared by spinning down 1 ml of a saturated yeast culture, suspending the cells in 200 μl of water, vortexing the cells in the presence of 0.2 g of glass beads (425-600 μm), and clearing the homogenate by centrifugation (1 min, 10000×g). Antifungal activity could only be detected in the culture medium of yeast cells transformed with pMFprepro/RsAFP2, which contained about 2 μg/ml of Rs-AFP2 equivalents. The activity of the homogenate of these cells, as well as that of culture media and cell homogenates of yeast cells transformed with pMFpre/RsAFP2 or pTG3828 transformed yeasts was below the detection limit (about 0.2 μg/ml of Rs-AFP2 equivalents).
The supernatant of 100 ml of a saturated culture of yeast transformed with pMFprepro/RsAFP2 (grown on minimal selective SD medium supplemented with 0.5% w/v of casamino acids) was centrifuged (4000 rpm, 10 min), and filtered (0.45 μm) to remove yeast cells and debris. Tris-HC1 (pH9) was added to the supernatant to a final concentration of 50 mM. The sample was loaded at a flow rate of 2 ml/min on an anion exchange chromatography column (Q-Sepharose Fast Flow, 20 ml bed volume, Pharmacia), on-line connected with a disposable reversed-phase C8 silica column (Bond Elut, 500 mg solid phase, Varian, Harbor City, USA). The antifungal activity was not retained on the Q-Sepharose matrix but bound to the C8 silica matrix. […] The latter eluate was dried in a rotating vacuum concentrator, redissolved in 0.5 ml 15% (v/v) acetonitrile containing 0.1% (v/v) TFA, and was loaded on a reversed-phase C2/C18 silica column (Pep-S, 5 μm beads, 0.4×25 cm, Pharmacia connected to a Waters 600 HPLC station pre-equilibriated with 15% acetonitrile containing 0.1% (v/v) TFA. After loading, the column was rinsed with the same buffer until the absorbance reached background level. The column was subsequently eluted with a 15 minute linear gradient from 15% to 50% acetonitrile containing 0.1% TFA at a flow rate of 1 ml/min. The eluate was monitored for proteins by on-line measurement of the absorbance at 280 nm. […] Twenty μl fractions were tested in a liquid growth inhibition assay: 20 μl samples were incubated in microtiter plate wells with 80 μl of half strength potato dextrose broth (Difco) containing 10^4 spores/ml of F culmorum; growth of the fungi was monitored by microspectrophotometry as described by Broekaert et al (1990, FEMS Microbiol Lett, 69: 55-60).
The specific antifungal activity of RPC-purified peak A material, as well as that of plant-derivable Rs-AFP2, was determined by measuring the percentage growth inhibition of F culmorum caused by serial dilutions of the protein samples. […]

With “SIα2: Sorghum bicolor α-amylase inhibitor 2, partially homologous to Rs-AFP2” as the substance, how does the antifungal activity read?
Its antifungal activity is “does not exhibit antifungal activity”.

From US6864068B2, “Antifungal proteins” (Syngenta Limited, priority 1995, dated 2005)
